The results in this text go back to US9925398B2, “Angiogenic peptide” (NOVACELL TECHNOLOGY INC., priority 2008, dated 2018).

For experiment [1], the system named is HUVECs. Kind of experiment: Tube formation assay on Matrigel. The following applies: 24 h. The experiment is classed as cell-based, human. How it is done:
As described previously in M. S. Lee, et al., J Immunol 177 (2006), pp. 5585-5594, HUVECs were seeded on a layer of previously polymerized Matrigel with SFKLRY-NH2 (SEQ ID NO: 2), its scrambled sequence FYSRLK-NH2, S1P or VEGF in the presence or absence of VEGF neutralizing antibody. After 24 h of incubation, changes in cell morphology were observed through a phase-contrast microscope and photographed. To measure the formation of the capillary network, the total tube length per field was measured at 40× magnification with the scale. Three different fields were analyzed per well.
FIGS. 2A-2C show SFKLRY-NH2 (SEQ ID NO: 2) induces proliferation, migration, and tube formation in HUVECs. (A) The effect of SFKLRY-NH2 on proliferation of HUVECs. […] After 48 h of incubation, the activity of DNA synthesis was counted with a liquid scintillation counter. […] After wounding, HUVECs were incubated with indicated concentration of SFKLRY-NH2 (SEQ ID NO: 2) (0.1-10 μM) for 16 h and then migrated HUVECs beyond the reference line were counted. […] After incubation for 24 h, the tubular-like structures were photographed and the length of tube formation was measured. […]
FIGS. 6A-6B show anti-VEGF antibody suppress SFKLRY-NH2 (SEQ ID NO: 2)-induced tube formation in HUVECs. […] After incubation for 24 h, the tubular-like structures were photographed and the length of tube formation was measured. […]

Experiment [2] relates to HUVECs. Kind of experiment: [Ca2+]i increase in HUVECs. The following applies: 10 μM. The format is cell-based, human. How it is done:
Cells were incubated with 4 μM Fura-2 AM and 250 μM sulfinpyrazone in serum-free DMEM medium at 37° C. for 30 min with continuous stirring. The cells were then washed with Locke's solution (M. Faehling, et al., FASEB J 16 (2002), pp. 1805-1807) and diluted to 2×10^6 cells/mL. 50 μL aliquots of cell suspension were added to each well of a 96-well plate, and the change in fluorescence ratio was determined at dual excitation wavelengths of 340 and 380 nm and emission wavelength of 500 nm following addition of peptides. Plates were read immediately following the addition of peptide pools, resulting in a time delay of approximately 5 s between peptide addition and detection by the FLEXstation (Molecular Devices). Negative and positive controls were run simultaneously with test samples to ensure that all samples were subjected to identical conditions. The calibration of the fluorescence ratio in terms of [Ca^2+]i was performed according to Grynkiewicz et al. J Biol Chem 260 (1985), pp. 3440-3450.
To verify that SFKLRY-NH2 (SEQ ID NO: 2) induces [Ca^2+]i increase in human endothelial cells, intracellular Ca^2+ mobilization in primary cultured human umbilical vein endothelial cells (HUVECs) were measured. Treatment with SFKLRY-NH2 (SEQ ID NO: 2) induced [Ca^2+]i increase in HUVECs with the half-maximal effect at 1.4±0.15 μM. […]

The subject of a further experiment is Rat aortic explants. Kind of experiment: Aortic ring assay (vessel sprouting ex vivo). The format is cell-based. The following applies: 1 μM; 7 days. As to the method: The method developed by Nicosia and Ottinetti in In Vitro Cell Dev Biol 26 (1990), pp. 119-128 was used with some modifications. Aortas were harvested from 6-week-old Sprague-Dawley rats. After removing the surrounding fibro-adipose tissues, the rings were immersed in Matrigel in wells within culture dishes. The aortic rings were cultured (5% CO2, 37° C.) in serum-free M199 containing SFKLRY-NH2 (SEQ ID NO: 2), S1P, FYSRLK-NH2, or VEGF in the presence or absence of PTX or U73122. On day 7, sprouting from aortic explants was measured.
To address whether SFKLRY-NH2 (SEQ ID NO: 2) plays a role in sprouting of vascular endothelial cells ex vivo, aortic rings were analyzed in the presence of various stimuli including 1 μM SFKLRY-NH2 (SEQ ID NO: 2), 10 ng/mL VEGF, 10 nM S1P, and 10% FBS. […] Rat aortic explants in Matrigel were incubated with M-199 harboring SFKLRY-NH2 (SEQ ID NO: 2) (1 μM), FYSRLK-NH2 (1 μM), S1P (10 nM), VEGF (10 ng/mL), SFKLRY-NH2 (SEQ ID NO: 2) (1 μM) with U73122 (10 μM) or PTX (50 ng/mL), or 10% FBS and photographed after incubation for 7 days. Three independent experiments were then conducted, each in duplicate.

Consider `CCCCCCCCCCCCC/C=C/[C@@H](O)[C@@H](N)COP(=O)(O)O` [S1P, sphingosine-1-phosphate], for which, in the experiment with HUVECs [1] (100 nM), the “Tube-forming activity (length of tube formation)” value came out at 19.69±0.32.

As for FYSRLK-NH2, the “Ca2+ mobilization” value with HUVECs [2] is recorded as “did not trigger Ca^2+ mobilization”. In the experiment on HUVECs [1] (10 μM), the “Tube-forming activity (length of tube formation)” value is reported as 8.96±1.14. Further, in the experiment with Rat aortic explants, the “vessel sprouting activity (outgrowth of endothelial cells)” value is listed as “negligible activity”.
